Laboratory results from ChEMBL document CHEMBL3792313, “Rational design, synthesis and 2D-QSAR study of novel vasorelaxant active benzofuran-pyridine hybrids” (Bioorg Med Chem Lett, 2016).
Where a name gives a salt, the structure may show the parent alone.

Tested on: Thoracic aorta
Assay: Vasodilative activity in isolated Wistar rat thoracic aorta assessed as inhibition of norepinephrine hydrochloride-induced contraction
Type: functional, tissue-based

`COc1nc(-c2cc3ccccc3o2)cc(-c2cn(C)c3ccccc23)c1C#N` and `CCOc1nc(-c2cc3ccccc3o2)cc(-c2cn(C)c3ccccc23)c1C#N` are within 1.5-fold of each other in IC50: 262 µM for the first, 327 µM for the second.

Going from `COc1ccc(OC)c(-c2cc(-c3cc4ccccc4o3)nc(OC)c2C#N)c1` to `COc1ccc(-c2cc(-c3cc4ccccc4o3)nc(OC)c2C#N)c(OC)c1`, the IC50 rises from 246 µM to 425 µM (1.7-fold). The first is the more potent here.

`CCOc1nc(-c2cc3ccccc3o2)cc(-c2ccc(Br)cc2)c1C#N` and `COc1nc(-c2cc3ccccc3o2)cc(-c2ccc(Br)cc2)c1C#N` are within 1.5-fold of each other in IC50: 227 µM for the first, 298 µM for the second.

`CCOc1nc(-c2cc3ccccc3o2)cc(-c2ccc(Cl)cc2Cl)c1C#N` and `COc1nc(-c2cc3ccccc3o2)cc(-c2ccc(Cl)cc2Cl)c1C#N` are within 1.5-fold of each other in IC50: 442 µM for the first, 322 µM for the second.

`CCOc1nc(-c2cc3ccccc3o2)cc(-c2ccc(OC)cc2OC)c1C#N` and `CCOc1nc(-c2cc3ccccc3o2)cc(-c2cc(OC)ccc2OC)c1C#N` are within 1.5-fold of each other in IC50: 488 µM for the first, 327 µM for the second.

`COc1nc(-c2cc3ccccc3o2)cc(-c2ccc(Cl)cc2)c1C#N` and `CCOc1nc(-c2cc3ccccc3o2)cc(-c2ccc(Cl)cc2)c1C#N` are within 1.5-fold of each other in IC50: 286 µM for the first, 221 µM for the second.

`CCOc1nc(-c2cc3ccccc3o2)cc(-c2ccc(N(C)C)cc2)c1C#N` and `COc1nc(-c2cc3ccccc3o2)cc(-c2ccc(N(C)C)cc2)c1C#N` are within 1.5-fold of each other in IC50: 338 µM for the first, 278 µM for the second.

`COc1ccc(-c2cc(-c3cc4ccccc4o3)nc(OC)c2C#N)cc1` and `CCOc1nc(-c2cc3ccccc3o2)cc(-c2ccc(OC)cc2)c1C#N` are within 1.5-fold of each other in IC50: 262 µM for the first, 204 µM for the second.

`CCOc1nc(-c2cc3ccccc3o2)cc(-c2ccc(F)cc2)c1C#N` and `COc1nc(-c2cc3ccccc3o2)cc(-c2ccc(F)cc2)c1C#N` are within 1.5-fold of each other in IC50: 396 µM for the first, 321 µM for the second.

`CCOc1nc(-c2cc3ccccc3o2)cc(-c2ccccc2)c1C#N` and `COc1nc(-c2cc3ccccc3o2)cc(-c2ccccc2)c1C#N` are within 1.5-fold of each other in IC50: 310 µM for the first, 232 µM for the second.

`CCn1cc(-c2cc(-c3cc4ccccc4o3)nc(OC)c2C#N)c2ccccc21` and `CCOc1nc(-c2cc3ccccc3o2)cc(-c2cn(CC)c3ccccc23)c1C#N` are within 1.5-fold of each other in IC50: 299 µM for the first, 358 µM for the second.

`CCOc1nc(-c2cc3ccccc3o2)cc(-c2cccc3ccccc23)c1C#N` and `COc1nc(-c2cc3ccccc3o2)cc(-c2cccc3ccccc23)c1C#N` are within 1.5-fold of each other in IC50: 344 µM for the first, 359 µM for the second.

`CCOc1nc(-c2cc3ccccc3o2)cc(-c2cc(OC)c(OC)c(OC)c2)c1C#N` and `COc1cc(-c2cc(-c3cc4ccccc4o3)nc(OC)c2C#N)cc(OC)c1OC` are within 1.5-fold of each other in IC50: 365 µM for the first, 310 µM for the second.

`CCOc1nc(-c2cc3ccccc3o2)cc(-c2ccc3ccccc3c2)c1C#N` and `COc1nc(-c2cc3ccccc3o2)cc(-c2ccc3ccccc3c2)c1C#N` are within 1.5-fold of each other in IC50: 423 µM for the first, 320 µM for the second.

`CCOc1nc(-c2cc3ccccc3o2)cc(-c2ccc(C)o2)c1C#N` and `COc1nc(-c2cc3ccccc3o2)cc(-c2ccc(C)o2)c1C#N` are within 1.5-fold of each other in IC50: 417 µM for the first, 285 µM for the second.

Compared with `CCOc1nc(-c2cc3ccccc3o2)cc(-c2cccs2)c1C#N`, `COc1nc(-c2cc3ccccc3o2)cc(-c2cccs2)c1C#N` is 1.9-fold lower in IC50: 308 µM for the first, 163 µM for the second.

`COc1nc(-c2cc3ccccc3o2)cc(-c2ccc(C)cc2)c1C#N` and `CCOc1nc(-c2cc3ccccc3o2)cc(-c2ccc(C)cc2)c1C#N` are within 1.5-fold of each other in IC50: 266 µM for the first, 290 µM for the second.

For `CCCCc1oc2ccccc2c1C(=O)c1cc(I)c(OCCN(CC)CC)c(I)c1` [AMIODARONE HYDROCHLORIDE], the IC50 was 312 µM.
